Data taken from patent publication US8084457B2, “Pharmaceutically active 4,6-disubstituted aminopyrimidine derivatives as modulators of protein kinases” (Lead Discovery Center GmbH, priority 2003, dated 2011).

Assays:
CDK1 = CDK1 (Homo sapiens, UniProt P06493); assay: General kinase assay, selectivity panel: CDK1; type: biochemical; conditions: 10 μM of compound, in comparison to DMSO (0% inhibition)
Description: (§1) The inhibitory effect of compounds according to the present invention on the activity of protein kinases, depicted in Table 1, can be measured according to the following protocol:
(§2) Pipettinq Sequence: • 1) Add 10 μl 4 fold concentrated Substrate+4 fold concentrated ATP in 3 fold concentrated Reaction Buffer to each well of Assay Plate • 2) Add 10 μl 4 fold concentrated inhibitor in 4% DMSO in H2O to each well except to C− and C+ wells • 3) Add 10 μl 4% DMSO in H2O to C− and C+ wells • 4) Add 10 μl 500 mM EDTA in H2O to − wells • 5) Add 10 μl 50 μCi/ml Adenosine 5′-[γ-^33P]triphosphate in H2O to each well • 6) Add 10 μl 4 fold concentrated kinase in Reaction Buffer to each well • 7) Incubate 1 hr at room temperature • 8) Add 10 μl 50 mM EDTA in H2O to each well except to C− wells • 9) Prepare MAPH plates by adding 200 μl 0.75% H3PO4 to each well • 10) Exhaust 0.75% H3PO4 using Millipore vacuum station • 11) Add 60 μl 0.75% H3PO4 to each well of MAPH Filter Plate • 12) Transfer 30 μl sample per well from Assay Plate to corresponding well of MAPH Filter Plate • 13) Incubate 30 min at room temperature • 14) Wash each well of MAPH Filter Plates 3× with 200 μl 0.75% H3PO4 using Millipore vacuum station. • 15) Add 20 μl Scintillation Liquid to each well of MAPH Filter Plate • 16) Seal MAPH Filter Plate • 17) Store MAPH Filter Plate 30 min in darkness • 18) Quantify radioactivity
(§3) The activity of these protein kinases is depicted as % inhibition in the presence of 10 μM of compound in comparison to DMSO (0% inhibition).

p56 Lck = p56 Lck (Homo sapiens, UniProt P06239); assay: General kinase assay, selectivity panel: p56 Lck; type: biochemical; conditions: 10 μM of compound, in comparison to DMSO (0% inhibition)
Description: as §1, §2, §3

RSK1 = RSK1 (Homo sapiens, UniProt Q15418); assay: General kinase assay, selectivity panel: RSK1; type: biochemical; conditions: 10 μM of compound, in comparison to DMSO (0% inhibition)
Description: as §1, §2, §3

EGFR = EGFR (Homo sapiens, UniProt P00533); assay: General kinase assay, selectivity panel: EGFR; type: biochemical; conditions: 10 μM of compound, in comparison to DMSO (0% inhibition)
Chain of EGFR (P00533 25-1210, species assumed): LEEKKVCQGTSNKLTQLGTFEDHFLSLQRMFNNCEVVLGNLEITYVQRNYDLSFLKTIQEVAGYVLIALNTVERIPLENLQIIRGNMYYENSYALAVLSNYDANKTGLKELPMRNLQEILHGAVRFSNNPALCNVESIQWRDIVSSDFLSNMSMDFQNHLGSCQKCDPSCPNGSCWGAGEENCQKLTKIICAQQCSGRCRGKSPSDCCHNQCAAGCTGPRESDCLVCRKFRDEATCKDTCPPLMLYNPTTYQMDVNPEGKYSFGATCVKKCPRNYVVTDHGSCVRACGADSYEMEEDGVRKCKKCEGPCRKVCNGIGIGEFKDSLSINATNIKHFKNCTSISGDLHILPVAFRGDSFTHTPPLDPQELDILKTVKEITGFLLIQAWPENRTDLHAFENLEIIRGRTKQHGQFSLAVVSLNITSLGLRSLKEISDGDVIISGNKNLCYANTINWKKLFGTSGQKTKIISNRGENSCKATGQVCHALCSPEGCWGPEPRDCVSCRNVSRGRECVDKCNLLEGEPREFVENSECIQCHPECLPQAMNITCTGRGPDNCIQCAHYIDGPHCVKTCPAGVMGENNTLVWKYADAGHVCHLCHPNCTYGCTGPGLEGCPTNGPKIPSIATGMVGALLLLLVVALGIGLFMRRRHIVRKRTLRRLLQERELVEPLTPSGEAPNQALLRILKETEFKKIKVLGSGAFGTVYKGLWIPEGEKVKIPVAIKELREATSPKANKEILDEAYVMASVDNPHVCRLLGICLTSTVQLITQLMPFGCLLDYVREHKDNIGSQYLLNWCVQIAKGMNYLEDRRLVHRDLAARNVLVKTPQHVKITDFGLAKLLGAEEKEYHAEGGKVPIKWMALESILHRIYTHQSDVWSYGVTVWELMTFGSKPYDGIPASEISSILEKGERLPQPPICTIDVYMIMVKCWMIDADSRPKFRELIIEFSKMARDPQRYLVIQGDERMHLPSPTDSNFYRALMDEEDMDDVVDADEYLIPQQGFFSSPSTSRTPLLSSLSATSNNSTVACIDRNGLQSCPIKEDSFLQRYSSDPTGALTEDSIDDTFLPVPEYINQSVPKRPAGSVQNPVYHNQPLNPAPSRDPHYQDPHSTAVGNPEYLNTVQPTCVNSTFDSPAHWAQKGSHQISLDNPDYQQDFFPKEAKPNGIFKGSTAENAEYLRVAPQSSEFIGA
Description: as §1, §2, §3

PDGFR = assay: General kinase assay, selectivity panel: PDGFR; type: biochemical; conditions: 10 μM of compound, in comparison to DMSO (0% inhibition)
Description: as §1, §2, §3

c-Kit = c-Kit (Homo sapiens, UniProt P10721); assay: General kinase assay, selectivity panel: c-Kit; type: biochemical; conditions: 10 μM of compound, in comparison to DMSO (0% inhibition)
Chain of c-Kit (P10721 26-976): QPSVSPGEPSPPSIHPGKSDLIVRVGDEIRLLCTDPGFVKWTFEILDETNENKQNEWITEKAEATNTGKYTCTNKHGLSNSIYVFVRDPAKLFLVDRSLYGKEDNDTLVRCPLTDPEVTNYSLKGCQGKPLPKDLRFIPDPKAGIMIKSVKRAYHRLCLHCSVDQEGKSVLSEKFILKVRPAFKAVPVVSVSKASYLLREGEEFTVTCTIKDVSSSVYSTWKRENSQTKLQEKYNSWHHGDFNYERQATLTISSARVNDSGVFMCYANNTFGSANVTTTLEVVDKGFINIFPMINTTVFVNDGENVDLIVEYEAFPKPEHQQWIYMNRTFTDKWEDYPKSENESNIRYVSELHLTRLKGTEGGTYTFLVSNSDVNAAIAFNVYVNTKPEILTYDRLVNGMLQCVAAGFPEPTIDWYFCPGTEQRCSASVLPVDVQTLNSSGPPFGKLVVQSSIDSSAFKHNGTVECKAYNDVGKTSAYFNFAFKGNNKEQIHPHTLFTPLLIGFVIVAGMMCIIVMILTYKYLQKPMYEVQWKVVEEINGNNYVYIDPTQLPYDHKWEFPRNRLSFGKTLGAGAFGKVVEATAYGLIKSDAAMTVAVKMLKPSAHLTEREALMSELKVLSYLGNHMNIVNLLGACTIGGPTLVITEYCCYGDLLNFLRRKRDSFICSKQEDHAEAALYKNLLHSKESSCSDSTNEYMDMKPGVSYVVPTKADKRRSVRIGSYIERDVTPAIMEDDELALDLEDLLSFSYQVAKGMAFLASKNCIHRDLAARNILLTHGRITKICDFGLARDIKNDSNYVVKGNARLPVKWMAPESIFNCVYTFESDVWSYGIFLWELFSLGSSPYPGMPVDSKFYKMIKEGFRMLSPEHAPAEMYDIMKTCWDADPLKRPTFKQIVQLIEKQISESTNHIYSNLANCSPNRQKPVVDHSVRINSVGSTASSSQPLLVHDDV
Description: as §1, §2, §3

GSK-3β = GSK-3β (Homo sapiens, UniProt P49841); assay: General kinase assay, selectivity panel: GSK-3β; type: biochemical; conditions: 10 μM of compound, in comparison to DMSO (0% inhibition)
Chain of GSK-3β (P49841 whole entry, species assumed): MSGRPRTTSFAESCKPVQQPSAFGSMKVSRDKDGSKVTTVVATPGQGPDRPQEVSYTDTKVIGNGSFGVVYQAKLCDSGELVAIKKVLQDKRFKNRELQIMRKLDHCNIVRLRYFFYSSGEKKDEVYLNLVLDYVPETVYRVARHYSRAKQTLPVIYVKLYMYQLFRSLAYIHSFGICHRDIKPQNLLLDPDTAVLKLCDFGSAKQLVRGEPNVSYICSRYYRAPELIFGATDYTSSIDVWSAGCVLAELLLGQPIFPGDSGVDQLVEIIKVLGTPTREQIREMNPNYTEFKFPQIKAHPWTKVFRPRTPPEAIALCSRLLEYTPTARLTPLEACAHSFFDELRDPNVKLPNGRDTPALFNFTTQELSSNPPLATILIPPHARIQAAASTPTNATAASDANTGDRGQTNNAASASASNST
Description: as §1, §2, §3

Abl = Abl (Homo sapiens, UniProt P00519); assay: General kinase assay, selectivity panel: Abl; type: biochemical; conditions: 10 μM of compound, in comparison to DMSO (0% inhibition)
Chain of Abl (P00519 whole entry, species assumed): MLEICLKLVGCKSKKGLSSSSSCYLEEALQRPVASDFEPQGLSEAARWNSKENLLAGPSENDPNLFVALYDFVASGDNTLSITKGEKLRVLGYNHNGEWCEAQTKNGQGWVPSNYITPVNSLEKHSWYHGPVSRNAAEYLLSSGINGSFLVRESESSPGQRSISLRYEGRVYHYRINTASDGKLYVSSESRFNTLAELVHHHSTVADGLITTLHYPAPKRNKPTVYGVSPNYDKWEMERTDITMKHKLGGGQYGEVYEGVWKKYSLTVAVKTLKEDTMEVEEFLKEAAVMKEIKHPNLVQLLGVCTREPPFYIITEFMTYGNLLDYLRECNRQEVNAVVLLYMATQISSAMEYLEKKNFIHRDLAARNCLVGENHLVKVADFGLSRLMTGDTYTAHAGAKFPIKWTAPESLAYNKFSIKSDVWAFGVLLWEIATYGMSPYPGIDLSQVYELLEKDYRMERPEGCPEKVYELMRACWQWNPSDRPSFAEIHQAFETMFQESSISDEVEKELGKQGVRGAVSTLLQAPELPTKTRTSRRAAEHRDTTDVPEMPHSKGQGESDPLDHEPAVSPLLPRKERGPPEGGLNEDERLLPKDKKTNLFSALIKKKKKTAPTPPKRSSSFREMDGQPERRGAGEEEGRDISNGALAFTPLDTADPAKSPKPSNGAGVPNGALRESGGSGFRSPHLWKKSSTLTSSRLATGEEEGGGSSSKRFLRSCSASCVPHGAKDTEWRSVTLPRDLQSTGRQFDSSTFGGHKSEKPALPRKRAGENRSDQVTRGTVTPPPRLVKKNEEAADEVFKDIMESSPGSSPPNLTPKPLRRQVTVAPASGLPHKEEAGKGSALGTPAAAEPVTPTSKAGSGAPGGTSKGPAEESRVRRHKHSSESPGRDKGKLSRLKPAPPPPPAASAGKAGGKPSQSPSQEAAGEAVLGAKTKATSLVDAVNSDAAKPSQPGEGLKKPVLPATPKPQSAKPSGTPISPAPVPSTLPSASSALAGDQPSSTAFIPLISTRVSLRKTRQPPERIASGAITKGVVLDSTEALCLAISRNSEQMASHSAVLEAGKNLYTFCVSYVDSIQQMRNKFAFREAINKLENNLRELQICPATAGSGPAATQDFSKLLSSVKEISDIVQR
Description: as §1, §2, §3

CDK5/p35 = molecular target: T1, CDK5/p35 (Homo sapiens, UniProt Q00535); assay: Kinase assay determining CDK5/p35 activity (selectivity panel); type: biochemical; conditions: 10 μM of compound, in comparison to DMSO (0% inhibition)
T1 construct: purchased Upsate (Upstate)
T1 sequence (Q00535 whole entry): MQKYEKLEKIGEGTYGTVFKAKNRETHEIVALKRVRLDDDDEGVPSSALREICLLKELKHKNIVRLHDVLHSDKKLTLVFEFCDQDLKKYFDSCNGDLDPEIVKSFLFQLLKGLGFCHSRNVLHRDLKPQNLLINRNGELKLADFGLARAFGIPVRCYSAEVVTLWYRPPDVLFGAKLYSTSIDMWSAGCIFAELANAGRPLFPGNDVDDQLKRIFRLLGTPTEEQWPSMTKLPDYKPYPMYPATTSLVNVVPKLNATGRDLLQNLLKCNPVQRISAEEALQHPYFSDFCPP
T1 sequence (Q15078 whole entry partner): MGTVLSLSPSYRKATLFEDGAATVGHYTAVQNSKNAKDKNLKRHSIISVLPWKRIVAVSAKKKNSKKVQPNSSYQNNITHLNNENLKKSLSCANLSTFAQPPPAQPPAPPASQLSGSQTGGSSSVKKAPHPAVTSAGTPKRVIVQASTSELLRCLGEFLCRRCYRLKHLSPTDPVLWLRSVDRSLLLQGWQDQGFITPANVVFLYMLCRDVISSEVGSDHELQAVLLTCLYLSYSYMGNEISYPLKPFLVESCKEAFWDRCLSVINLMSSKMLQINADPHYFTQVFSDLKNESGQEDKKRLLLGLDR
Description: Kinase Assays Determining CDK2/CyclinA and CDK5/p35 Activity:
Kinase assays were performed as described by the manufacturers recommendations (Proqinase for CDK2/CyclinA and Upsate for CDK5/p35).
as §3

CDK4 = CDK4 (Homo sapiens, UniProt P11802); assay: CDK4 (activity range), Table 2; no method described; type: biochemical
Chain of CDK4 (P11802 whole entry, species assumed): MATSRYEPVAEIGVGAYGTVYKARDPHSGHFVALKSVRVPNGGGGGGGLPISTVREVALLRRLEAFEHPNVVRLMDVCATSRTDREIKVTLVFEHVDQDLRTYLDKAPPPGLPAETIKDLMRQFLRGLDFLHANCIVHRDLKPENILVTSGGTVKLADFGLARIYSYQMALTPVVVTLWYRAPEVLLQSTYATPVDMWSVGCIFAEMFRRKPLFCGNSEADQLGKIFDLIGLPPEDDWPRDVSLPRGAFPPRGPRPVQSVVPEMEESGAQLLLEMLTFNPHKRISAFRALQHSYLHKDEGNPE
Chain of CDK4 (P24385 whole entry partner, species assumed): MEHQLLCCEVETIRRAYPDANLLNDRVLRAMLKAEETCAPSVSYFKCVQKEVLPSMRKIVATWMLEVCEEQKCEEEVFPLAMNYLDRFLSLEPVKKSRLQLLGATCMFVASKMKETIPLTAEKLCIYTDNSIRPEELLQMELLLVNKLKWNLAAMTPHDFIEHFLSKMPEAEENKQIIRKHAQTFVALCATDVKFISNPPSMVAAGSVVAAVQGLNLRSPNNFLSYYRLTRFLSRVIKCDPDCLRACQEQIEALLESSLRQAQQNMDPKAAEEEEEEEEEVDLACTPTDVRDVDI

HBV = HBV replication assay in HepG2-2.2.15 cells; type: cell-based
Description: To test anti—HBV-activity of compounds the HBV-producing cell line HepG2-2.2.15 (M. A. Sells, PNAS 1987, 84, 1005-1009) was used. 1.0×10^4 cells were seeded in 96-well microtiter plates in DMEM medium supplemented with 10% FCS. After incubation at 37° C. in 5% CO2 atmosphere for 24 hours the medium was replaced with fresh medium containing the appropriately diluted compound. 3 days later medium was replaced by freshly prepared inhibitor-containing medium and the cells were incubated for further 3 days. Subsequently 200 μl lysis buffer (50 mM Tris-Cl 7.5; 1 mM EDTA 8.0; 0.5% NP40) per well was added. To remove cell debris and […], lysate was centrifuged (15000 rpm, 10 min, 4° C.). Cellular and viral RNA was removed by addition of 2 μl of RNase. 100 μl of the samples were spotted onto an uncharged nylon membrane pre-wetted with PBS (phosphate-buffered saline) using a 96 well-blotting chamber (MINIfold Dot-Blot, Schleicher&Schüll). After further washing with 200 μl PBS per well the membrane was treated twice with 0.5 M NaOH, 1.5 M NaCl (2 min) and 4 times with 0.5 M Tris 7.5, 3 M NaCl (1 min). The nucleic acids were fixed by UV-treatment and used for hybridisabon with a radioactive HBV-fragment prepared from the overgenome-length HBV-plasmid pT-HBV1.3 (L. G. Guidotti et al., Journal of Virology 1995., 69(10), 6158-6169).
The fixed membrane was pre-hybridized in a standard hybridisation buffer (50% formamide, 5×SSPE, 10×Denhards, 1% SDS, 100 μg/ml salmon sperm DNA) for at least 3 hours at 42° C. and hybridised overnight against the labelled HBV-fragment. The preparation of the HBV-fragment with the “Random primers DNA labelling system” (Invitrogen) was done according to the manufacturer's instructions. Hybridized filter were washed at room temperature with 2×SSC, at 62° C. with 2×SSC, 0.5% SDS and at 62° C. with 0.5×SSC, 0.5% SDS. Each washing step was carried out twice. The intensity of the HBV-DNA was quantified using a phosphoimager (Fuji). […] Absorbance was monitored at 570 nm and 600 nm wavelength.

Compound | CDK1 (% inhibition) (CDK1) | EGFR (% inhibition) (EGFR) | PDGFR (% inhibition) (PDGFR) | IC50 (CDK4) | further results
COc1ccccc1-c1cc(Nc2ccc(NS(C)(=O)=O)cc2)ncn1 [Compound 33] | a (inhibition greater than 80%: a) | b (inhibition between 80 and 50%: b) | b (inhibition between 80 and 50%: b) |  | p56 Lck (% inhibition) (p56 Lck): b (inhibition between 80 and 50%: b); RSK1 (% inhibition) (RSK1): c (inhibition between 50 and 30%: c); c-Kit (% inhibition) (c-Kit): b (inhibition between 80 and 50%: b); GSK-3β (% inhibition) (GSK-3β): b (inhibition between 80 and 50%: b)
CCN(CC)CCC(=O)Nc1ccc(Nc2cc(-c3ccccc3OC)ncn2)cc1 [Compound 64] | a (inhibition greater than 80%: a) | a (inhibition greater than 80%: a) | b (inhibition between 80 and 50%: b) |  | p56 Lck (% inhibition) (p56 Lck): b (inhibition between 80 and 50%: b); Abl (% inhibition) (Abl): b (inhibition between 80 and 50%: b); c-Kit (% inhibition) (c-Kit): b (inhibition between 80 and 50%: b); GSK-3β (% inhibition) (GSK-3β): c (inhibition between 50 and 30%: c)
COc1ccccc1-c1cc(Nc2ccc(NC(=O)c3cn(C)cn3)cc2)ncn1 [Compound 70] | a (inhibition greater than 80%: a) | b (inhibition between 80 and 50%: b) | b (inhibition between 80 and 50%: b) |  | p56 Lck (% inhibition) (p56 Lck): b (inhibition between 80 and 50%: b); RSK1 (% inhibition) (RSK1): b (inhibition between 80 and 50%: b); Abl (% inhibition) (Abl): c (inhibition between 50 and 30%: c); c-Kit (% inhibition) (c-Kit): b (inhibition between 80 and 50%: b); GSK-3β (% inhibition) (GSK-3β): b (inhibition between 80 and 50%: b)
COc1ccccc1-c1cc(Nc2ccc(NC(=O)[C@@H](N)c3ccccc3)cc2)ncn1 [Compound 81] | a (inhibition greater than 80%: a) | b (inhibition between 80 and 50%: b) | b (inhibition between 80 and 50%: b) |  | Abl (% inhibition) (Abl): b (inhibition between 80 and 50%: b); CDK5 (% inhibition) (CDK5/p35): a (inhibition greater than 80%: a); GSK-3β (% inhibition) (GSK-3β): b (inhibition between 80 and 50%: b)
CN[C@H](C(=O)Nc1ccc(Nc2cc(-c3ccccc3OC)ncn2)cc1)c1ccccc1 [Compound 82] | b (inhibition between 80 and 50%: b) | a (inhibition greater than 80%: a) | c (inhibition between 50 and 30%: c) |  | Abl (% inhibition) (Abl): c (inhibition between 50 and 30%: c); CDK5 (% inhibition) (CDK5/p35): b (inhibition between 80 and 50%: b); GSK-3β (% inhibition) (GSK-3β): c (inhibition between 50 and 30%: c)
Cc1ccc(Nc2cc(-c3cccc(N)c3)ncn2)cc1NS(=O)(=O)c1ccccc1 [Compound 109] | a (inhibition greater than 80%: a) | b (inhibition between 80 and 50%: b) | c (inhibition between 50 and 30%: c) |  | CDK5 (% inhibition) (CDK5/p35): a (inhibition greater than 80%: a); GSK-3β (% inhibition) (GSK-3β): a (inhibition greater than 80%: a)
CNC(C)(C)C(=O)Nc1ccc(Nc2cc(-c3ccccc3OC)ncn2)cc1 [Compound 118] | b (inhibition between 80 and 50%: b) | a (inhibition greater than 80%: a) | b (inhibition between 80 and 50%: b) |  | Abl (% inhibition) (Abl): c (inhibition between 50 and 30%: c); CDK5 (% inhibition) (CDK5/p35): b (inhibition between 80 and 50%: b)
CCN(CC)CCNC(=O)c1ccc(Nc2cc(-c3ccccc3OC)ncn2)cc1 [Compound 217] |  |  |  | 1 to 10 µM | 
N[C@@H]1CCCC[C@H]1NC(=O)c1ccc(Nc2cc(-c3ccccc3O)ncn2)cc1 [Compound 218] |  |  |  | 1 to 10 µM | 
COc1ncccc1-c1cc(Nc2ccc(C(=O)N[C@@H]3CCCC[C@H]3N)cc2)ncn1 [Compound 219] |  |  |  | 10 to 250 µM | 
CSc1ccncc1-c1cc(Nc2ccc(C(=O)N[C@@H]3CCCC[C@H]3N)cc2)ncn1 [Compound 224] |  |  |  | 1 to 10 µM | 
CN(C)c1ccccc1-c1cc(Nc2ccc(C(=O)N[C@@H]3CCCC[C@H]3N)cc2)ncn1 [Compound 233] |  |  |  | 1 to 10 µM | 
COc1ccccc1-c1cc(Nc2ccc(N3CCOCC3)cc2)ncn1 [Compound 280] |  |  |  | 1 to 10 µM | 
O=C(O)Cc1ccc(Nc2cc(-c3ccccc3OCc3ccccc3)ncn2)cc1 [Compound 294] |  |  |  | 1 to 10 µM | 
COc1ccccc1-c1cc(Nc2cccc(S(N)(=O)=O)c2)ncn1 [Compound 331] |  |  |  | 10 to 250 µM | 
CNS(=O)(=O)c1ccc(Nc2cc(-c3ccccc3OC)ncn2)cc1 [Compound 341] |  |  |  | 1 to 10 µM | 
COc1ccccc1-c1cc(Nc2ccc3c(c2)S(=O)(=O)C=C3)ncn1 [Compound 342] |  |  |  | 10 to 250 µM | 
COc1cccc(F)c1-c1cc(Nc2cccc(S(C)(=O)=O)c2)ncn1 [Compound 346] |  |  |  | 1 to 10 µM | 
COc1ccccc1-c1cc(Nc2ccc(CCO)cc2)ncn1 [Compound 351] |  |  |  | 1 to 10 µM | 
COc1ccccc1-c1cc(Nc2ccc3cnn(C)c3c2)ncn1 [Compound 353] |  |  |  | 1 to 10 µM | 
CN1CC[C@H](c2c(O)cc(O)c3c(=O)cc(-c4ccccc4Cl)oc23)[C@H](O)C1 [flavopiridol, reference compound] |  |  |  |  | HBV replication (in words) (HBV): inhibits replication
